# Measured values taken from patent US20070213301A1 (ACHILLION PHARMACEUTICALS, INC., priority 2006, published 2007).
# System: HCV replicon
# Test: HCV replicon replication assay (NPTII ELISA)
# Assay type: cell-based, Hepatitis C virus (Huh-7 cells)
# Details: Hepatitis C virus, Huh-7, 72 h, inhibition of HCV replicon replication in Huh-7 HCV replicon-containing cells, three days incubation, NPT level by ELISA
# Summary of the method: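 Huh-7 cells carrying a Bartenschlager NPTII (neo) HCV replicon, treated 3 days at 37 °C with compound, generally 6 concentrations from 10 to 0.03 micromolar, in equal DMSO across wells. NPTII level, proportional to replication, read by capture ELISA on methanol:acetone-fixed cells; interferon alpha positive control; toxicity scored visually or by MTS.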
row,Structure (SMILES),EC50
1,CCCCCCCCOc1ccc(N(C(=O)c2cc(C)on2)c2nc(-c3nc4ccccc4s3)cs2)cc1 [Compound 90],1 to 10 µM

# Same assay, conditions: Hepatitis C virus, Huh-7, 72 h, inhibition of HCV replicon replication in Huh-7 HCV replicon-containing cells, three days incubation, NPT level by ELISA; read-out: EC50
row,Structure (SMILES),EC50
1,"CCCCCCOc1ccc(N(C(N)=O)c2nc(-c3ccc(C)nc3)cs2)cc1 [Compound 143, 1-(4-(hexyloxy)phenyl)-1-(4-(6-methylpyridin-3-yl)thiazol-2-yl)urea]",1 to 10 µM
2,"CCCCCOc1ccc(N(C(=O)C(=O)OC)c2nc(-c3cccnc3)cs2)cc1F [Compound 27, methyl 2-((3-fluoro-4-(pentyloxy)phenyl)(4-(pyridin-3-yl)thiazol-2-yl)amino)-2-oxoacetate]",< 1 µM
3,"CCCCCOc1ccc(N(C(N)=O)c2nc(-c3ccccn3)cs2)cc1F [Compound 112, 1-(3-fluoro-4-(pentyloxy)phenyl)-1-(4-(pyridin-2-yl)thiazol-2-yl)urea]",1 to 10 µM
4,"CCCCCOc1ccc(N(C(N)=O)c2nc(-c3ccc(C(=O)N(C)C)nc3)cs2)cc1C(F)(F)F [Compound 77, N,N-dimethyl-5-(2-(1-(4-(pentyloxy)-3-(trifluoromethyl)phenyl)ureido)thiazol-4-yl)picolinamide]",< 1 µM
5,"CCCCCOc1ccc(N(C(=O)c2cc(C)on2)c2nc(-c3nc4ccccc4s3)cs2)cc1C(F)(F)F [Compound 94, N-(4-(benzo[d]thiazol-2-yl)thiazol-2-yl)-5-methyl-N-(4-(pentyloxy)-3-(trifluoromethyl)phenyl)isoxazole-3-carboxamide]",< 1 µM
6,"CCCCCN(C)c1ccc(N(C(=O)C(=O)OC)c2nc(-c3cccnc3)cs2)cc1C(F)(F)F [Compound 53, methyl 2-((4-(methyl(pentyl)amino)-3-(trifluoromethyl)phenyl)(4-(pyridin-3-yl)thiazol-2-yl)amino)-2-oxoacetate]",< 1 µM
7,"C/C=N/N(c1ccc(OCCCCCCCC)cc1)c1nc(-c2cccnc2)cs1 [Compound 190, (E)-2-(2-ethylidene-1-(4-(octyloxy)phenyl)hydrazinyl)-4-(pyridin-3-yl)thiazolo]",< 1 µM
8,"CCCCCCCCOc1ccc(N(C(=O)NCC(=O)O)c2nc(-c3cccnc3)c(F)s2)cc1C(F)(F)F [Compound 166, 2-(3-(5-fluoro-4-(pyridin-3-yl)thiazol-2-yl)-3-(4-(octyloxy)-3-(trifluoromethyl)phenyl)ureido)acetic acid]",< 1 µM
9,"CCCCCCCOc1ccc(N(C(N)=O)c2nc(-c3ccc(F)cc3)cs2)cc1 [Compound 71, 1-(4-(4-fluorophenyl)thiazol-2-yl)-1-(4-(heptyloxy)phenyl)urea]",< 1 µM
10,"CCCCCCCCOc1ccc(N(C(=O)COCCOCCOC)c2nc(-c3cccnc3)c(F)s2)cc1C(F)(F)F [Compound 172, N-(5-fluoro-4-(pyridin-3-yl)thiazol-2-yl)-2-(2-(2-methoxyethoxy)ethoxy)-N-(4-(octyloxy)-3-(trifluoromethyl)phenyl)acetamide]",< 1 µM
11,"CCCCCOc1ccc(N(C(=O)C(=O)OC)c2nc(-c3ccc(F)cc3)cs2)cc1C(F)(F)F [Compound 38, methyl 2-((4-(4-fluorophenyl)thiazol-2-yl)(4-(pentyloxy)-3-(trifluoromethyl)phenyl)amino)-2-oxoacetate]",< 1 µM
12,"CCCCCCCCOc1ccc(N(C(=O)OCCOCCOCCOCCOC)c2nc(-c3cccnc3)c(F)s2)cc1C(F)(F)F [Compound 171, 2,5,8,11-tetraoxatridecan-13-yl 5-fluoro-4-(pyridin-3-yl)thiazol-2-yl(4-(octyloxy)-3-(trifluoromethyl)phenyl)carbamate]",< 1 µM
13,"C/C=N/N(c1ccc(OCCCCCCCC)c(C(F)(F)F)c1)c1nc(-c2cccnc2)c(F)s1 [Compound 191, (E)-2-(2-ethylidene-1-(4-(octyloxy)-3-(trifluoromethyl)phenyl)hydrazinyl)-5-fluoro-4-(pyridin-3-yl)thiazolo]",1 to 10 µM
14,"CCCCCCCCOc1ccc(N(C(N)=O)c2nc(-c3cccnc3)c(F)s2)cc1C(F)(F)F [Compound 176, 1-(5-fluoro-4-(pyridin-3-yl)thiazol-2-yl)-1-(4-(octyloxy)-3-(trifluoromethyl)phenyl)urea]",< 1 µM
15,"CCCCOc1ccc(N(C(N)=O)c2nc(-c3ccc(F)c(F)c3)cs2)cc1C(F)(F)F [Compound 138, 1-(4-butoxy-3-(trifluoromethyl)phenyl)-1-(4-(3,4-difluorophenyl)thiazol-2-yl)urea]",< 1 µM
16,"CCCCCOc1ccc(N(C)c2nc(-c3ccc(CN4CCN(C)CC4)nc3)cs2)cc1C(F)(F)F [Compound 10, N-methyl-4-(6-((4-methylpiperazin-1-yl)methyl)pyridin-3-yl)-N-(4-(pentyloxy)-3-(trifluoromethyl)phenyl)thiazol-2-amine]",< 1 µM
17,"NC(=O)c1cc(-c2csc(N(C(N)=O)c3ccc(OCC4CCCCC4)c(F)c3)n2)ccc1O [Compound 115, 5-(2-(1-(4-(cyclohexylmethoxy)-3-fluorophenyl)ureido)thiazol-4-yl)-2-hydroxybenzamide]",1 to 10 µM
18,"CCCCCOc1ccc2c(c1)[nH]c(=O)n2-c1nc(-c2cccnc2)cs1 [Compound 127, 5-(pentyloxy)-1-(4-(pyridin-3-yl)thiazol-2-yl)-1H-benzo[d]imidazol-2(3H)-one]",1 to 10 µM
19,"CCCCCCOc1ccc(N(C(N)=O)c2nc(-c3ccc4c(c3)NC(=O)CO4)cs2)cc1 [Compound 121, 1-(4-(hexyloxy)phenyl)-1-(4-(3-oxo-3,4-dihydro-2H-benzo[b][1,4]oxazin-6-yl)thiazol-2-yl)urea]",1 to 10 µM
20,"CCCCOc1ccc(N(C(N)=O)c2nc(-c3ccc(C)nc3)cs2)cc1C(F)(F)F [Compound 132, 1-(4-butoxy-3-(trifluoromethyl)phenyl)-1-(4-(6-methylpyridin-3-yl)thiazol-2-yl)urea]",< 1 µM
21,"NC(=O)N(c1ccc(OCC2CCCCC2)c(F)c1)c1nc(-c2cccnc2)cs1 [Compound 119, 1-(4-(cyclohexylmethoxy)-3-fluorophenyl)-1-(4-(pyridin-3-yl)thiazol-2-yl)urea]",< 1 µM
22,"NC(=O)N(c1ccc(OCC2CCCCC2)c(F)c1)c1nc(-c2ccccn2)cs1 [Compound 118, 1-(4-(cyclohexylmethoxy)-3-fluorophenyl)-1-(4-(pyridin-2-yl)thiazol-2-yl)urea]",1 to 10 µM
23,"CCCCCOc1ccc(N(C(C)=O)c2nc(-c3ccc(F)cc3)cs2)cc1C(F)(F)F [Compound 1, N-(4-(4-fluorophenyl)thiazol-2-yl)-N-(4-(pentyloxy)-3-(trifluoromethyl)phenyl)acetamide]",< 1 µM
24,"CCCCCCCCc1ccc(N(C(=O)CC(C)(C)c2c(C)cc(C)cc2OP(=O)(O)O)c2nc(-c3cccnc3)c(F)s2)cc1C(F)(F)F [Compound 182, 2-(4-((5-fluoro-4-(pyridin-3-yl)thiazol-2-yl)(4-octyl-3-(trifluoromethyl)phenyl)amino)-2-methyl-4-oxobutan-2-yl)-3,5-dimethylphenyl dihydrogen phosphate]",1 to 10 µM
25,"NC(=O)N(c1ccc(OCC2CCCCC2)c(F)c1)c1nc(-c2ccc(F)c(F)c2)cs1 [Compound 120, 1-(4-(cyclohexylmethoxy)-3-fluorophenyl)-1-(4-(3,4-difluorophenyl)thiazol-2-yl)urea]",< 1 µM
26,"CCCCCCCOc1ccc(N(C(=O)C(=O)OC)c2nc(-c3cccnc3)cs2)cc1 [Compound 40, methyl 2-((4-(heptyloxy)phenyl)(4-(pyridin-3-yl)thiazol-2-yl)amino)-2-oxoacetate]",< 1 µM
27,"Cc1ccc(-c2csc(N(C(N)=O)c3ccc(OCC(C)C)c(C(F)(F)F)c3)n2)cn1 [Compound 147, 1-(4-isobutoxy-3-(trifluoromethyl)phenyl)-1-(4-(6-methylpyridin-3-yl)thiazol-2-yl)urea]",< 1 µM
28,"NC(=O)N(c1ccc(F)c(C(F)(F)F)c1)c1nc(-c2cccnc2)cs1 [Compound 83, 1-(4-fluoro-3-(trifluoromethyl)phenyl)-1-(4-(pyridin-3-yl)thiazol-2-yl)urea]",< 1 µM
29,"CCCCCOc1ccc(N(C(N)=O)c2nc(-c3cccnc3)cs2)cc1F [Compound 87, 1-(3-fluoro-4-(pentyloxy)phenyl)-1-(4-(pyridin-3-yl)thiazol-2-yl)urea]",< 1 µM

# Same assay, conditions: inhibition of HCV replicon replication in Huh-7 HCV replicon-containing cells, three days incubation, NPT level by ELISA
row,Structure (SMILES),EC50
1,"CC(C)COc1ccc(N(C(N)=O)c2nc(-c3cccnc3)cs2)cc1C(F)(F)F [Compound 152, 1-(4-isobutoxy-3-(trifluoromethyl)phenyl)-1-(4-(pyridin-3-yl)thiazol-2-yl)urea]",1 to 10 µM
